A short description of test [1]: Late stage assay provider results from the probe development effort to identify inhibitors of the Plasmodium falciparum M18 Aspartyl Aminopeptidase (M18AAP): radiolabel-based cell-based dose response assay to identify compounds that inhibit P. falciparum growth in RBCs, Set 2.. Type of test: functional.
For another test, the system named is INS1. The test can be described thus: beta cell apoptosis inhibitors, cytokine rescue, dose response, luminescence, retest (AID 449756).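 Note: cell death triggered by IL-1 beta plus TNF-alpha plus IFN-gamma mixture; protective hits raise ATP signal compared with cytokine alone wells.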 The class given is functional, cell-based. As to conditions: Rattus norvegicus.
The target of test [2] is COUP transcription factor 2 (Homo sapiens, UniProt P24468). The test can be described thus: Luminescence-based cell-based high throughput dose response assay to identify inhibitors of COUP-TFII (NR2F2). The class given is functional.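 Note: HEK293 cells transiently cotransfected with COUP-TFII expression vector and reporter; luciferase reporter luminescence driven by COUP-TFII from the pX2-168 reporter plasmid.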
COUP transcription factor 2, sequence (P24468 whole entry): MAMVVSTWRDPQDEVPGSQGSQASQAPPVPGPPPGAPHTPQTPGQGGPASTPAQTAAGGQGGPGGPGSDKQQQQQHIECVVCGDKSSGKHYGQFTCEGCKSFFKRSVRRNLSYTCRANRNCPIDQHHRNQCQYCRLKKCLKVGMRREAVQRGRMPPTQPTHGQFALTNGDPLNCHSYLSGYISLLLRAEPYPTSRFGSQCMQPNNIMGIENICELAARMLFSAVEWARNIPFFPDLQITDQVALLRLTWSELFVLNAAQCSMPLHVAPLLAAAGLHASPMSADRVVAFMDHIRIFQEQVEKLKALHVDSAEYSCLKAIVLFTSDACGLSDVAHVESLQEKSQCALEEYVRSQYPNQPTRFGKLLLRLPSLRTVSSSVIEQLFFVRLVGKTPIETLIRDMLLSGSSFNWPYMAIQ
Test [3] deals with G-protein coupled receptor 183 (Homo sapiens, UniProt P32249). The test can be described thus: SAR confirmation of small molecule antagonists of the EBI2 receptor via a luminescent beta-arrestin assa. The class given is functional.
G-protein coupled receptor 183, sequence (P32249 whole entry): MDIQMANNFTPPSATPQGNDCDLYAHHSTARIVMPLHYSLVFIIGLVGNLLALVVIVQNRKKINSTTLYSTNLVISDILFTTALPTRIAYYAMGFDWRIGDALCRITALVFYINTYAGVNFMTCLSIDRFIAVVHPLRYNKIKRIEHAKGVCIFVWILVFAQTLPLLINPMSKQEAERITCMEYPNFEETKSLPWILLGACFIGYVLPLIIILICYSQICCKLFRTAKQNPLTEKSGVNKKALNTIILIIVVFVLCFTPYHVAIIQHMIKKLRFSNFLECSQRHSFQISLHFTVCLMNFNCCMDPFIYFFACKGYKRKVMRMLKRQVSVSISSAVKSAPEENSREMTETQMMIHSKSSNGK
Test [4] in a line: A549 cell cytotoxicity, dose response, cytotoxicity control, plate reader, cherry-pick, antagonist series (AID 743412). Type of test: functional, cell-based.
The nature of test [5]: HepG2 cell cytotoxicity, dose response, cytotoxicity control, plate reader, cherry-pick, antagonist series (AID 743416). The class given is functional, cell-based.
A short description of test [6]: LGR2 antagonists, dose response, cell-based, HEK293, CRE-luciferase reporter, cherry pick, set 2 (AID 743343).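 Note: transfected cells were stimulated with diluted bursicon conditioned medium after compound addition.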 Type of test: functional. In general terms: Reporter assays use an easily measured gene product as a stand-in for the process of interest.
Test [7] in a line: MC4R antagonists, dose response, counter-screen for LGR2 antagonist project, cell-based, plate reader, cherry pick (AID 743444).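 Note: transfected HEK 293 cells stimulated with alpha-MSH peptide; potency of inhibitors of the alpha-MSH evoked signal.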 Type of test: functional.
Test [8] can be described thus: HEK293 cell cytotoxicity, dose response, cytotoxicity control, plate reader, cherry-picked samples (AID 743446). The class given is functional, cell-based.
Test [9] is described as follows: P. falciparum 3D7-ScDHODH growth inhibitors, dose response, SYBR Green, dry powder samples (AID 1159570).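 Note: parasite growth measured after 72 hours of compound exposure.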 Type of test: functional, cell-based.
Test [10] in a line: HepG2 cell cytotoxicity, dose response, cytotoxicity control, plate reader, dry powder samples (AID 1159569).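 Note: inhibitor potency with signal falling toward the positive control level.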 Type of test: functional, cell-based.
Test [11] in a line: P. falciparum Dd2 growth inhibitors, dose response, SYBR Green, dry powder samples, set 9 (AID 1159568). The class given is functional, cell-based.
Test [12] in a line: P. falciparum Dd2 growth inhibitors, dose response, SYBR Green, cherry-picked samples (AID 1159567). Type of test: functional, cell-based.
Test [13] can be described thus: P. falciparum Dd2 growth inhibitors, dose response, SYBR Green, dry powder samples (AID 1159566).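 Note: potency for growth inhibition with lower SYBR green DNA signal.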 Type of test: functional, cell-based.
A short description of test [14]: P. falciparum ATP4 D1247Y mutant growth inhibitors, dose response, NITD609-resistant line, SYBR Green, dry powder (AID 1159571).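 Note: parasites synchronized at ring stage by sorbitol before testing.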 The class given is functional, cell-based.
For test [15], the target named is Tyrosyl-DNA phosphodiesterase 2 (Homo sapiens, UniProt O95551). In words: human TDP2 enzyme inhibitors, dose response, biochemical, epi absorbance, IC50 (AID 743297).
Tyrosyl-DNA phosphodiesterase 2, sequence (O95551 whole entry): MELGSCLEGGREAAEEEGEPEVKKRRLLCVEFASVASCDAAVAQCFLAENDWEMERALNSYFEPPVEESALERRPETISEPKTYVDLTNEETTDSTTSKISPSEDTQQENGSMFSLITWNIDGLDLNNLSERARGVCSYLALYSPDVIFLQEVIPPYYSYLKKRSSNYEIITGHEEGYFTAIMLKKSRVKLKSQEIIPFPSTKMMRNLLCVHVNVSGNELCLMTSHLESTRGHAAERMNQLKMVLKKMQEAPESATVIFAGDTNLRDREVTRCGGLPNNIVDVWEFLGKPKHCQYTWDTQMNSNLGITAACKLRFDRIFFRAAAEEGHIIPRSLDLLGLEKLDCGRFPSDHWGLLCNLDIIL
For the next test, the target named is Paired box protein Pax-8 (Homo sapiens, UniProt Q06710). The test can be described thus: inhibitors of PAX8-driven TPO luciferase reporter, dose response, RMG-I cells, cherry-pick (AID 687027).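 Note: luciferase reporter driven by Pax8 target thyroperoxidase promoter measured by SteadyGlo luminescence.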 The class given is functional, cell-based.
Paired box protein Pax-8, sequence (Q06710 whole entry): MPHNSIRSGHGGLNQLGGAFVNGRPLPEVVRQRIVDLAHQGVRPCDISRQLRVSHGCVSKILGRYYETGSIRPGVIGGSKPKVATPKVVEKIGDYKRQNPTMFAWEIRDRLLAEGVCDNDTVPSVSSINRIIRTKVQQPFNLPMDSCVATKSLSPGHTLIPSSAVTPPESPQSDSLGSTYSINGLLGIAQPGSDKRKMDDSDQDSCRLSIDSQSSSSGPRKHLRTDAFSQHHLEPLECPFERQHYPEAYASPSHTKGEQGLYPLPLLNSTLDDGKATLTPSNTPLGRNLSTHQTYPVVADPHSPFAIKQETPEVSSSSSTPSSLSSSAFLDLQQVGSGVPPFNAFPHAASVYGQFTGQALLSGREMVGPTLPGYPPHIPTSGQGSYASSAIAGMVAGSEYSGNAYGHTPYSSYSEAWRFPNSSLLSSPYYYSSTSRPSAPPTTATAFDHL
Test [16] is described as follows: A2780 ovarian cancer cell cytotoxicity, dose response, cytotoxicity control, plate reader, dry powder samples (AID 743046). Type of test: functional, cell-based.
A short description of test [17]: NIH:OVCAR-3 ovarian cancer cell cytotoxicity, dose response, PAX8 inhibitor project, plate reader, dry powder samples (AID 743044). Type of test: functional, cell-based.
Test [18] is described as follows: cytotoxicity in OVCAR8 ovarian cancer cells, dose response, PAX8 project, cell-based, plate reader, dry powder samples (AID 743197). Type of test: functional. As to conditions: OVCAR-8.
The target in another test is Caspase-6 (Homo sapiens, UniProt P55212). In words: human caspase-6 inhibitors, dose response, biochemical, VEID-R110 fluorescence, cherry-pick (AID 720632).
Caspase-6, sequence (P55212 24-179 limits assumed): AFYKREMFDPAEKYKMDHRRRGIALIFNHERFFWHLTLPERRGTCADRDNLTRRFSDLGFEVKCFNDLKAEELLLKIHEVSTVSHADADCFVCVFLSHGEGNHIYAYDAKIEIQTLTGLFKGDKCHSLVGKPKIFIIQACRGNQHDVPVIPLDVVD
Caspase-6, sequence (P55212 194-293 limits assumed): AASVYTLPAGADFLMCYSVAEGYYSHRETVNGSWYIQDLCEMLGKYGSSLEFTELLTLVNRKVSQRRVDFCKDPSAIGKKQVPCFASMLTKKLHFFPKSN

Here are results for seven compounds from ChEMBL document CHEMBL1201862, “PubChem BioAssay data set” (2004).

The term IC50 denotes the concentration that inhibits the measured activity by half. What is called AC50 is the concentration giving half of the maximal activity seen.

The structures appear in SMILES notation. Calls of active or inactive are those of the source.

As to `Oc1ccc(CCNC2CCN(Cc3ccccc3)CC2)cc1O`, in test [1], the IC50 was 6.5 µM (active).
As for `O=C(NCC(c1ccco1)N1CCCC1)c1ccc(Cl)c(S(=O)(=O)N2CCc3ccccc32)c1` (configuration not stated), the AC50 in the test on INS1 was 3.56 µM (active). Further, in [2], the IC50 is 7.01 µM (active).
For the compound `O=C(CCCc1ccc(Br)cc1)N1CCN(C(=O)c2ccc(Cl)cc2)CC1`, in test [3], the IC50 is > 1 µM (inactive).
As for `COc1ccccc1C#Cc1ccc([C@H]2[C@@H](C#N)N(C(=O)C3CCCCC3)[C@H]2CO)cc1`, the AC50 was 21.3 µM (active) in test [4]; 30.5 µM (active) in test [5]; 11.3 µM (active) in [6]; 7.87 µM (active) in test [7]; 14.9 µM (active) in test [8]; 0.862 µM (active) in test [9]. For the same compound, the AC50 is 29.8 µM (active) in [10]; 1.17 µM (active) in [11]; 1.19 µM (active) in [12]; 0.349 µM (active) in test [13]; 0.443 µM (active) in [14].
Turning to `COc1ccc(-c2[nH]nc(O)c2NC(=O)c2ccc(C)cc2)cc1`, the IC50 in test [15] is > 128 µM (inactive).
With `CC(C)NC(=O)N1Cc2cc(C(=O)NCC(F)(F)F)nc(-c3cccc(-c4cc5ccccc5o4)c3)c2[C@H]1CCO`, the AC50 at Paired box protein Pax-8 was 7.2 µM (active); in test [16], 16.8 µM (active); in test [17], 38.2 µM (active); in test [18], 58.2 µM (active); in test [12], 5.15 µM (active).
On to `Cc1ccc(Sc2ccc(S(=O)(=O)Nc3ccc(CC(=O)O)cc3)cc2)cc1C`, for which, at Caspase-6, the AC50 is 49.3 µM (active).
